Results as given in US20200181117A1, “SUBSTITUTED 3-HETEROARYLOXY-1H-PYRAZOLES AND SALTS THEREOF AND THEIR USE AS HERBICIDAL ACTIVE SUBSTANCES” (BAYER CROPSCIENCE AKTIENGESELLSCHAFT, priority 2017, published 2020).

Columns and labels:
Type in all cases: in vivo
Abutilon theophrasti [1] = assay: Pre-emergence herbicidal action; details: 1280 g/ha, scored visually after about 3 weeks vs untreated controls
How it was run: (§1)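 Soil-applied pre-emergence test: WP/EC formulations in water (600 l/ha, 0.5% additive) at 1280 g/ha on covered seeds; greenhouse; visual % rating at ~3 weeks, 100% meaning dead plants.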

Viola tricolor [2] = assay: Pre-emergence herbicidal action; details: 1280 g/ha, scored visually after about 3 weeks vs untreated controls
How it was run: as §1

Alopecurus myosuroides [3] = assay: Pre-emergence herbicidal action; details: 1280 g/ha, scored visually after about 3 weeks vs untreated controls
How it was run: as §1

Stellaria media [4] = assay: Pre-emergence herbicidal action; details: 1280 g/ha, scored visually after about 3 weeks vs untreated controls
How it was run: as §1

Polygonum convolvulus [5] = assay: Pre-emergence herbicidal action; details: 1280 g/ha, scored visually after about 3 weeks vs untreated controls
How it was run: as §1

Matricaria inodora = assay: Pre-emergence herbicidal action; details: 1280 g/ha, scored visually after about 3 weeks vs untreated controls
How it was run: as §1

Pharbitis purpurea [6] = assay: Pre-emergence herbicidal action; details: 1280 g/ha, scored visually after about 3 weeks vs untreated controls
How it was run: as §1

Echinochloa crus-galli [7] = assay: Pre-emergence herbicidal action; details: 1280 g/ha, scored visually after about 3 weeks vs untreated controls
How it was run: as §1

Setaria viridis [8] = assay: Pre-emergence herbicidal action; details: 1280 g/ha, scored visually after about 3 weeks vs untreated controls
How it was run: as §1

Amaranthus retroflexus [9] = assay: Pre-emergence herbicidal action; details: 1280 g/ha, scored visually after about 3 weeks vs untreated controls
How it was run: as §1

Viola tricolor [10] = assay: Post-emergence herbicidal action; details: 1280 g/ha, rated visually after about 3 weeks vs untreated controls
How it was run: (§2)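 Visual % activity versus untreated controls (100% = plants died, 0% = like controls), scored about 3 weeks after a foliar spray. Greenhouse plants in sandy loam were treated at one-leaf stage with 1280 g/ha in aqueous spray containing 0.5% additive, 600 l/ha.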

Lolium rigidum [11] = assay: Pre-emergence herbicidal action; details: 1280 g/ha, scored visually after about 3 weeks vs untreated controls
How it was run: as §1

Hordeum murinum = assay: Pre-emergence herbicidal action; details: 1280 g/ha, scored visually after about 3 weeks vs untreated controls
How it was run: as §1

Avena fatua = assay: Pre-emergence herbicidal action; details: 1280 g/ha, scored visually after about 3 weeks vs untreated controls
How it was run: as §1

Abutilon theophrasti [12] = assay: Post-emergence herbicidal action; details: 1280 g/ha, rated visually after about 3 weeks vs untreated controls
How it was run: as §2

Alopecurus myosuroides [13] = assay: Post-emergence herbicidal action; details: 1280 g/ha, rated visually after about 3 weeks vs untreated controls
How it was run: as §2

Stellaria media [14] = assay: Post-emergence herbicidal action; details: 1280 g/ha, rated visually after about 3 weeks vs untreated controls
How it was run: as §2

Polygonum convolvulus [15] = assay: Post-emergence herbicidal action; details: 1280 g/ha, rated visually after about 3 weeks vs untreated controls
How it was run: as §2

Amaranthus retroflexus [16] = assay: Post-emergence herbicidal action; details: 1280 g/ha, rated visually after about 3 weeks vs untreated controls
How it was run: as §2

Veronica persica [17] = assay: Pre-emergence herbicidal action; details: 1280 g/ha, scored visually after about 3 weeks vs untreated controls
How it was run: as §1

Pharbitis purpurea [18] = assay: Post-emergence herbicidal action; details: 1280 g/ha, rated visually after about 3 weeks vs untreated controls
How it was run: as §2

Echinochloa crus-galli [19] = assay: Post-emergence herbicidal action; details: 1280 g/ha, rated visually after about 3 weeks vs untreated controls
How it was run: as §2

Setaria viridis [20] = assay: Post-emergence herbicidal action; details: 1280 g/ha, rated visually after about 3 weeks vs untreated controls
How it was run: as §2

Lolium rigidum [21] = assay: Post-emergence herbicidal action; details: 1280 g/ha, rated visually after about 3 weeks vs untreated controls
How it was run: as §2

Veronica persica [22] = assay: Post-emergence herbicidal action; details: 1280 g/ha, rated visually after about 3 weeks vs untreated controls
How it was run: as §2

Ipomoea purpurea = assay: Post-emergence herbicidal action; details: 1280 g/ha, rated visually after about 3 weeks vs untreated controls
How it was run: as §2

Row | SMILES | herbicidal activity on Abutilon theophrasti (Abutilon theophrasti [1]) | herbicidal activity on Viola tricolor (Viola tricolor [2]) | herbicidal activity on Alopecurus myosuroides (Alopecurus myosuroides [3]) | herbicidal activity on Stellaria media (Stellaria media [4]) | herbicidal activity on Polygonum convolvulus (Polygonum convolvulus [5]) | herbicidal activity on Matricaria inodora (Matricaria inodora) | herbicidal activity on Pharbitis purpurea (Pharbitis purpurea [6]) | herbicidal activity on Echinochloa crus-galli (Echinochloa crus-galli [7]) | herbicidal activity on Setaria viridis (Setaria viridis [8]) | herbicidal activity on Amaranthus retroflexus (Amaranthus retroflexus [9]) | herbicidal activity on Viola tricolor (Viola tricolor [10]) | herbicidal activity on Lolium rigidum (Lolium rigidum [11]) | herbicidal activity on Hordeum murinum (Hordeum murinum) | herbicidal activity on Avena fatua (Avena fatua) | herbicidal activity on Abutilon theophrasti (Abutilon theophrasti [12]) | herbicidal activity on Polygonum convolvulus (Polygonum convolvulus [15]) | herbicidal activity on Amaranthus retroflexus (Amaranthus retroflexus [16]) | herbicidal activity on Veronica persica (Veronica persica [17]) | herbicidal activity on Pharbitis purpurea (Pharbitis purpurea [18]) | herbicidal activity on Setaria viridis (Setaria viridis [20]) | further results
1 | CCn1cc(Sc2ccc(F)cc2)c(Oc2ncccn2)n1 [Example I-038] | 80% | 100% | 80% | 100% | 80% | 90% | 80% | 80% | 100% | 100% | 90% | – | – | – | – | – | – | – | – | – | –
2 | CCc1c(Sc2ccc(F)c(F)c2)c(Oc2ncccn2)nn1C [Example I-062] | 100% | 100% | 100% | 100% | 100% | 100% | 80% | 100% | 100% | 100% | 100% | 80% | 100% | 80% | 100% | 90% | 100% | – | – | – | herbicidal activity on Alopecurus myosuroides (Alopecurus myosuroides [13]): 80%; herbicidal activity on Stellaria media (Stellaria media [14]): 90%
3 | CCc1c(Sc2ccc(F)cc2F)c(Oc2ncc(F)cn2)nn1C [Example I-094] | 100% | 100% | 100% | 100% | 90% | 100% | 100% | 100% | 100% | 100% | 100% | 80% | 100% | – | 90% | 90% | 100% | 100% | 100% | – | herbicidal activity on Stellaria media (Stellaria media [14]): 100%; herbicidal activity on Echinochloa crus-galli (Echinochloa crus-galli [19]): 80%
4 | Fc1ccc(Sc2c(Oc3ncccn3)nn3c2CCC3)cc1 [Example I-097] | 100% | 100% | 100% | 100% | 100% | 100% | 90% | 100% | 100% | 90% | 80% | – | 90% | 80% | 90% | – | 80% | 90% | 90% | 90% | herbicidal activity on Alopecurus myosuroides (Alopecurus myosuroides [13]): 90%; herbicidal activity on Echinochloa crus-galli (Echinochloa crus-galli [19]): 100%
5 | COc1cnc(Oc2nn(C)c(C)c2Sc2ccc(F)c(F)c2)nc1 [Example I-157] | 100% | 100% | 100% | 100% | 100% | 100% | – | 100% | 100% | 100% | 100% | 100% | 100% | 100% | 90% | 80% | 100% | 100% | – | 80% | herbicidal activity on Alopecurus myosuroides (Alopecurus myosuroides [13]): 100%; herbicidal activity on Lolium rigidum (Lolium rigidum [21]): 80%; herbicidal activity on Echinochloa crus-galli (Echinochloa crus-galli [19]): 100%
6 | CCc1c(Sc2ccc(F)cc2)c(Oc2ncc(F)cn2)nn1C [Example I-183] | 100% | 100% | 100% | 100% | 100% | 100% | – | 100% | 100% | 100% | 100% | 100% | 100% | – | 90% | 90% | 100% | – | 100% | 100% | herbicidal activity on Alopecurus myosuroides (Alopecurus myosuroides [13]): 90%; herbicidal activity on Stellaria media (Stellaria media [14]): 90%; herbicidal activity on Veronica persica (Veronica persica [22]): 90%; herbicidal activity on Echinochloa crus-galli (Echinochloa crus-galli [19]): 90%
7 | CCc1c(Sc2ccc(F)cc2)c(Oc2ncc(OC)cn2)nn1C [Example I-186] | – | 100% | – | 100% | 80% | 90% | – | – | 100% | 100% | 100% | – | – | – | – | – | 100% | – | 80% | – | herbicidal activity on Ipomoea purpurea (Ipomoea purpurea): 80%
8 | COc1cnc(Oc2nn(C)c(C)c2Sc2ccc(F)cc2F)nc1 [Example I-205] | 100% | 100% | 100% | 100% | 100% | 100% | 100% | 100% | 100% | 100% | 90% | 100% | 100% | 100% | 90% | – | 90% | 100% | – | 80% | –
9 | CCc1c(Sc2ccc(F)cc2F)c(Oc2ncc(OC)cn2)nn1C [Example I-207] | 80% | 100% | – | 100% | 80% | – | – | – | 100% | 100% | 80% | – | – | – | – | – | 90% | 100% | 90% | – | herbicidal activity on Ipomoea purpurea (Ipomoea purpurea): 90%
10 | CCn1cc(Sc2ccc(F)cc2)c(Oc2ncc(F)cn2)n1 [Example I-211] | 90% | 100% | 90% | 100% | 90% | 90% | 80% | 90% | 100% | 100% | 80% | 100% | – | – | – | 100% | – | 100% | – | 90% | herbicidal activity on Stellaria media (Stellaria media [14]): 100%
